The values below come from patent publication EP3366310A1, “L-ARABINOSE AND USES THEREOF AGAINST VIBRIO GENUS BACTERIA” (priority 2017, dated 2018).

Assay [1] has as its system V. cholerae N16961. Kind of assay: Growth curves (optical density at 600 nm over time). The conditions noted are these: for effect on V. cholerae growth or morphology: M9-MM, 0.2% of carbon source (Table 1 and Figure 5). In kind it is cell-based, Vibrio cholerae. How it is done:
Cells were grown at 30°C in M9 minimal medium supplemented with 0.2% fructose and 1 µg/ml thiamine (M9-MM) and M9-MM + 0.1% casamino acids (M9-MM + CAA) in a 96-well microtiter plate and the optical density at 600 nm followed over time in a Tecan plate reader. The growth curves plotted are the average of three replicates; the standard deviation is represented for each time point.
(§1) During experiments in which inventors used an arabinose-inducible promoter to express fluorescently tagged proteins in V. cholerae, they occasionally observed the presence of spherical cells. […]. To better understand this phenotype, inventors grew V. cholerae cells to exponential phase in different liquid media and added increasing concentrations of L-Ara. After a few hours, they inspected the cells morphology at the microscope. […] To see the effect of L-Ara on cell proliferation and growth, overnight cultures were diluted into fresh media containing increasing amounts of the inducer. The OD of these cultures was monitored over time (Figure 2). […].

Assay [2] deals with V. cholerae N16961. Briefly: Microscopy inspection of cell morphology (spherical cells) after exposure to carbon sources. In kind it is cell-based, Vibrio cholerae. The protocol:
Cells were grown to exponential phase and spread on a 1% (w/v) agar pad (ultrapure agarose, Invitrogen) for analysis. For snapshot analyses, cells images were acquired using a DM6000-B (Leica) microscope. For time-lapse analyses the agarose pad was made using M9-MM and images were acquired using an Evolve 512 EMCCD camera (Roper Scientific) attached to an Axio Observe spinning disk (Zeiss).
as §1

The test system of assay [3] is EPV50 (derived from El Tor isolate N16961). Kind of assay: microbe, parasite or virus in culture. In kind it is cell-based. The conditions noted are these: Vibrio cholerae. The protocol: An EPV50 (derived from El Tor isolate N16961) overnight culture was diluted 200 times in M9-MM, followed by 2 hours of growth at 30°C before 0.2% L-Ara was added and growth continued for other 5 hours. Cells were checked for complete transition to spherical morphology at the microscope. Serial dilutions of t0 (before L-Ara addition) and t1 (after L-Ara treatment) samples were plated on Luria Bertani (LB) agarose plates and the number of colonies used to calculate the CFU at t0 and t1. The ratio CFU t1 / CFU t0 is used to calculate the percentage of cells able to survive L-Ara treatment and revert to proliferating cells.

The test system of a further assay is EPV50. Kind of assay: Muropeptide analysis (peptidoglycan isolation and UPLC). In kind it is cell-based, Vibrio cholerae. How it is done: EPV50 overnight cultures were diluted 200 times in M9-MM and grown at 30°C. 100 ml were centrifuged after 7 hours of growth and 1L of culture to which 0.2% L-Ara was added after 2 hours was harvested after further 5 hours of incubation. Cells were checked for complete transition to spherical morphology at the microscope. Previously described methods were followed for muropeptide isolation and ultra-performance liquid chromatography (UPLC) analysis [Desmarais et al. and Möll et al.]. After boiling for 2 hours cell pellets with SDS (sodium dodecyl sulfate) the lysates were left stirring over night at room temperature. Cell wall material was pelleted, washed with MQ water to remove the SDS, and digested with pronase E to remove Braun's lipoprotein. Purified peptidoglycan was re-suspended in MQ water and treated overnight with muramidase at 37°C. Soluble muropeptides were reduced with sodium borohydride and the pH then adjusted to 3.5 with phosphoric acid. Samples were injected in an ultra-performance liquid chromatography (UPLC) system to obtain the muropeptide profiles. UPLC separation was performed on a Waters UPLC system equipped with an ACQUITY UPLC BEH C18 Column, 130 Å, 1.7 µm, 2.1 mm × 150 mm (Waters) and a dual wavelength absorbance detector using a linear gradient from buffer A (phosphate buffer 50 mM, pH 4.35) to buffer B (phosphate buffer 50 mM, pH 4.95, methanol 15% (vol/vol)) in a 22-min run with a 0.25 mL/min flow. Elution of muropeptides was detected at 204 nm. Identity of the peaks was assigned by comparison of the retention times and profiles to other chromatograms in which mass spectrometry data has been collected. The relative amounts of the muropeptides and the percentage of cross-linkage were calculated as described by Glauner et al. To calculate the amount of peptidoglycan per cell, the total area of the muropeptides was normalized to the OD of the culture. All values are the means of three independent experiments.

[4] abbreviates: M9-MM supplemented with casamino acids (CAA).
The mark [5] stands for this setting: muropeptide group, M9-MM, 0.2% L-Ara for 5 hours.

For `O=C[C@@H](O)[C@H](O)[C@H](O)CO` [D-Arabinose, reference compound], the “effect on V. cholerae growth or morphology” value in the assay with V. cholerae N16961 [1] is recorded as “none of them, including D-Arabinose, affected V. cholerae growth or morphology”.

As for `O=C[C@H](O)[C@@H](O)[C@@H](O)CO` [L-Arabinose], in the assay with V. cholerae N16961 [2] (setting [4]), the “L-Ara concentration at which all cells exhibited the spherical phenotype” value is 0.5% and the “L-Ara concentration at which spherical cells started to appear” value was 0.2%. Further, the cell morphology entry in the assay with V. cholerae N16961 [2] (M9-MM, 0.02% L-Ara, a few hours) was “normal rod-shape”. In the assay on V. cholerae N16961 [2] (M9-MM, 0.1% L-Ara (Figure 1A)), the cell shape result is listed as “spherical shape with a heterogeneous diameter size”. For the same compound, in the assay on V. cholerae N16961 [2] (M9-MM, a few hours), the “L-Ara concentration at which cells became completely round” value was found to be 0.1%. The “L-Ara concentration that triggers a toxic response (stop of proliferation, loss of rod-shape)” value in the assay on V. cholerae N16961 [2] (Vibrio cholerae, summary statement) is on record as 0.02%. Also, in the assay on V. cholerae N16961 [1] (M9-MM and M9-MM+CAA, increasing amounts of L-Ara), the “effect on cell growth (OD)” value is recorded as “arrested V. cholerae cell growth”. Moreover, the “effect on V. cholerae growth or morphology” value in the assay on V. cholerae N16961 [1] is “deleterious effects on cell growth or cell morphology”. Besides, the killing at 0.2 % in assay [3] (5 h, read-out: cell death) was around 50%. The viability at 0.2 % in assay [3] (M9-MM, 0.2% L-Ara for 5 hours, ratio CFU t1 / CFU t0, read-out: percentage of survival to L-Ara treatment) was around 50%. In addition, in the assay with EPV50 (setting [5]), the “Anhydro-muropeptides (%)” value is reported as 21.9 (±3.7) %, the “DAP-DAP cross-linked muropeptides (%)” value was 7.5 (±0.9) %, the “Dimers (%)” value is 47.2 (±3.1) % and the “Trimers (%)” value is 12.6 (±4.8) %. Further, the “Monomers (%)” value in the assay with EPV50 (muropeptide group, M9-MM, 0.2% L-Ara for 5 hours, mean of three experiments (±SD)) is 40.2 (±3.2) %. Further, in the assay with EPV50 (peptidoglycan feature, calculated from the number of anhydro-muropeptides, M9-MM, 0.2% L-Ara for 5 hours), the “Average glycan chain length” value is 7.5 (±1.1). For the same compound, the “Total cross-linkage (%)” value with EPV50 (peptidoglycan feature, M9-MM, 0.2% L-Ara for 5 hours) is reported as 47.2 (±5.0) %. Also, in the assay on EPV50 (spherical L-Ara-treated bacteria, 0.2% L-Ara), the “amount of peptidoglycan per cell, times lower than in rod-shaped (non-treated) cells” value is listed as “around 10 times”. Further, the “glycan chains, times shorter than in non-treated cells” value in the assay on EPV50 (spherical L-Ara-treated cells, 0.2% L-Ara) is on record as “around 2 times”.
